Laboratory results published in patent publication US9334246B2, “Substituted triazines for malaria treatment and chemoprophylaxis” (The United States of America, as represented by the …, priority 2013, dated 2016).
Read-outs that look alike come from different tables or passages of the source.

Tests used:
[1] = system: P. falciparum W2; experiment: Malaria SYBR Green Fluorescence Assay, W2 strain; format: cell-based, Plasmodium falciparum; details: for W2: SYBR Green Assay
[2] = system: P. cynomolgi
[3] = system: P. berghei; experiment: Thompson Test, in vivo mouse malaria assay; parameters: species or system mice (ICR strain)
[4] = target: T1, hERG potassium ion channel (Homo sapiens, UniProt Q12809); experiment: hERG patch clamp assay (% inhibition at 10 μM)
[5] = system: P. falciparum D6; experiment: Malaria SYBR Green Fluorescence Assay, D6 strain; format: cell-based, Plasmodium falciparum; details: for D6: SYBR Green Assay
[6] = system: P. falciparum C235; experiment: Malaria SYBR Green Fluorescence Assay, C235 strain; format: cell-based, Plasmodium falciparum; details: for C235: SYBR Green Assay
[7] = target: T1, hERG potassium ion channel; details: 10 μM
[8] = system: drug resistant strains of P. falciparum; experiment: in vitro profiling against different drug resistant strains of P. falciparum; format: cell-based, Plasmodium falciparum
[9] = in vivo
[10] = target: hERG channel (Homo sapiens, UniProt Q12809)
[11] = % inhibition at 10 μM, patch clamp
[12] = (160 × 3): 160 mg/kg for 3 days

T1 sequence (Q12809 whole entry): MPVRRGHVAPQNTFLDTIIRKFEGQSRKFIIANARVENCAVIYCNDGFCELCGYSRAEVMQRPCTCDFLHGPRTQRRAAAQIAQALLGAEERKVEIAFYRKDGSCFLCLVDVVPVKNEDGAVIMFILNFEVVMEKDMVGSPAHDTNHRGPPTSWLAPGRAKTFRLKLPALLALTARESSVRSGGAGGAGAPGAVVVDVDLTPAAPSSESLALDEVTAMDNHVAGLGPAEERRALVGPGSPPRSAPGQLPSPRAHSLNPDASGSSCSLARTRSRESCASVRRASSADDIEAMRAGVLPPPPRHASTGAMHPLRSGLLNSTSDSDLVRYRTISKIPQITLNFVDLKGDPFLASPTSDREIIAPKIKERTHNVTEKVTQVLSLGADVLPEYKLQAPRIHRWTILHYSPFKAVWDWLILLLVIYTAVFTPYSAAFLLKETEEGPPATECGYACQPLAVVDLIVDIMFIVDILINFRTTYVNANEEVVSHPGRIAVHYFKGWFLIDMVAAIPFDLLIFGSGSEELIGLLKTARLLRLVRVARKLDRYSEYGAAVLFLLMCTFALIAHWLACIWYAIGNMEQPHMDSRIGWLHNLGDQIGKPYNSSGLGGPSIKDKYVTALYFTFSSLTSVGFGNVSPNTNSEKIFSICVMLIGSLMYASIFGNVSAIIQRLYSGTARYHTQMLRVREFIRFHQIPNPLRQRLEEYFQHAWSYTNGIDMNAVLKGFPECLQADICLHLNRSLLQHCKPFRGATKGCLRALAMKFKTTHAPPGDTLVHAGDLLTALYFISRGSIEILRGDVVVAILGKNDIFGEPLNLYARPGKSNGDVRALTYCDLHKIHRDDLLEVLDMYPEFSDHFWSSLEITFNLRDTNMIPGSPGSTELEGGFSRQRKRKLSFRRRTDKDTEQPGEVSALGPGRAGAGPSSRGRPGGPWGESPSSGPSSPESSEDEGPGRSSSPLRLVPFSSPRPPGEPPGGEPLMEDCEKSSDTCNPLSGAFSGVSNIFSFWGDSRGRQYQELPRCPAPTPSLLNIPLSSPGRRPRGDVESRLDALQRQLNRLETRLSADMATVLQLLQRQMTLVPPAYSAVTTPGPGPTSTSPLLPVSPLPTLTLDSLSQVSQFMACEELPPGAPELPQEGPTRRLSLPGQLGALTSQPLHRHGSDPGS
hERG channel, sequence (Q12809 whole entry): as above

| Molecule | W2 [1] [ng/mL] | Rhesus Results ([2]; 65 mg/kg once weekly) | Rhesus Results ([2]; 65 mg/kg/day × 7 days) | In vivo Results Thompson Assay (n/N Cures or Suppressive) ([3]; (80 × 3): 80 mg/kg for 3 days) | hERG ([4]; hERG activity as % inhibition) [%] | D6 [5] [ng/mL] | C235 [6] [ng/mL] | hERG [4, 11] [%] | also measured |
| --- | --- | --- | --- | --- | --- | --- | --- | --- | --- |
| CC(C)(C)c1ccc(cc1)c2nc(nc(n2)C(Cl)(Cl)Cl)N3CC4CC3CN4 [Compound 721] | 69 | prophylaxis | malaria cures | (80 × 3) 2/5 Cures | 2 | 142 | 126 | – | – |
| CC(C)(N)CNc1nc(-c2ccc(C(Cl)(Cl)Cl)cc2)nc(C(Cl)(Cl)Cl)n1 [Compound 55] | 30 | prophylaxis | malaria cures | 5/5 | – | 46 | 89 | 17 | In vivo Results Thompson Assay (n/N Cures or Suppressive) ([3]; (40 × 3): 40 mg/kg for 3 days): 3/5 |
| CC(CNc1nc(Nc2ccc(Cl)c(Cl)c2)nc(n1)C(Cl)(Cl)Cl)N(C)C [Compound 641] | – | prophylaxis | malaria cures | (80 × 3) 5/5 Cures | – | – | – | – | hERG (% inhibition) [7]: 117%; W2 (SYBR Green Assay IC50) [1]: 0.005 mg/L; malaria parasitemia, prophylactic drug, rhesus P. cynomolgi relapsing model ([2]; dosed once weekly (65 mg, PO)): prevented malaria parasitemia; tolerability ([2]; rhesus monkey, in vivo, 316 mg/kg): well tolerated; in vitro potency [8]: excellent in vitro potency; mouse half-life ([9]; po, 80 mg/kg): 8 h; Cmax ([9]; mouse): > 0.6 µM; In vivo Results Thompson Assay (n/N Cures or Suppressive) ([3]; (40 × 3): 40 mg/kg for 3 days): 2/5; In vivo Results Thompson Assay (n/N Cures) ([3]; (160 × 1): single 160 mg/kg PO dose): 5/5; D6 (SYBR Green Assay IC50) [5]: 0.015 mg/L; C235 (SYBR Green Assay IC50) [6]: 0.013 mg/L; IC50 [10]: 0.6 µM |
| ClC(Cl)(Cl)c1ccc(-c2nc(NCCN3CCCC3)nc(C(Cl)(Cl)Cl)n2)cc1 [Compound 57] | 6 | – | – | Suppressive | – | 10 | 22 | 25 | In vivo Results Thompson Assay (n/N Cures or Suppressive) [3, 12]: 5/5 |
| CCN1CCC(CC1)C(C)Nc2nc(Nc3ccc(Cl)c(Cl)c3)nc(n2)C(Cl)(Cl)Cl [Compound 643] | – | – | – | (80 × 3) 2/5 Cures | – | – | – | – | W2 (SYBR Green Assay IC50) [1]: 0.033 mg/L; hERG (% inhibition) ([4]; 10 μM): 100%; D6 (SYBR Green Assay IC50) [5]: 0.047 mg/L; C235 (SYBR Green Assay IC50) [6]: 0.048 mg/L |
| CN1CCN(c2nc(-c3ccc([S+](C)[O-])cc3)nc(C(Cl)(Cl)Cl)n2)CC1 (centres unmarked) [Compound 72] | 33 | – | – | (80 × 3) Suppressive | – | 33 | 27 | 41 | – |
| CCN1CCCC(Nc2nc(-c3ccc(C(C)(C)C)cc3)nc(C(Cl)(Cl)Cl)n2)C1 (centres unmarked) [Compound 79] | 25 | – | – | (80 × 3) Suppressive | – | 26 | 36 | 51 | – |
| CS(=O)(=O)c1ccc(-c2nc(N3CC4CC3CN4)nc(C(Cl)(Cl)Cl)n2)cc1 (centres unmarked) [Compound 724, CS(═O)(═O)c1ccc(cc1)c2nc(nc(n2)C(Cl)(Cl)Cl)N3CC4CC3CN4] | 71 | – | – | (80 × 3) Suppressive | 70 | 106 | 110 | – | – |
| Cc1ccc(cc1)c2nc(nc(n2)C(Cl)(Cl)Cl)N3CC4CC3CN4 [Compound 719] | 68 | – | – | (80 × 3) Suppressive; (160 × 3) | 10 | 96 | 114 | – | In vivo Results Thompson Assay (n/N Cures or Suppressive) [3, 12]: Suppressive |
